Where “and” joins values, the source holds several entries; their conditions need not be identical. Equal values may be shown once.
Columns and labels:
Assay type in all cases: cell-based
cos-7 cells = assay: DNA transfection: luciferase expression relative to Lipofectamine 2000; conditions: for luciferase expression (second part of table, values relative to LIPO2000): 300 ng of DNA per well; for % of the luciferase activity obtained from the use of Lipofectamine 2000: 300 ng DNA per well; for % of the luciferase activity obtained from the use of Lipofectamine 2000 / Luciferase expression as a percentage of that achieved using Lipofectamine 2000: luciferase assay after 48 hours; for Luciferase expression as a percentage of that achieved using Lipofectamine 2000: 300 ng Luciferase DNA per well
How it was run: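 cos-7 cells were transfected with 300 ng/well luciferase DNA complexed with lipid at ratios from 2.5 to 25 w/w. Bright-Glo luminescence was read after 48 hours and converted to ng luciferase by standard curve. Data are percent of the Lipofectamine 2000 control (2.5 w/w).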

[1] = system: renilla and firefly luciferases; assay: siRNA delivery: reporter-protein (renilla luciferase) knockdown relative to Lipofectamine 2000, firefly luciferase as viability control; conditions: 50 ng of siRNA per well
Protocol: Reporter-protein knockdown achieved by the top transfecting lipids relative to Lipofectamine™ 2000 (where negative values indicate improved knockdown). The assay accounts for toxicity, monitoring expression of both renilla and firefly luciferases, where the latter serves as viability control. For each lipid, 50 ng of siRNA was added per well at specific lipid/RNA w/w ratios (from top to bottom: 2.5, 5, 10, 15).

[2] = DNA delivery: raw luciferase expression (relative light units) of best-transfecting lipids; conditions: 300 ng of DNA per well
Protocol: Raw values for luciferase expression (relative lights units) of best-transfecting lipids at lipid/DNA (w/w) ratios listed. 300 ng of DNA was added per well.

[3] = 1st column, no head printed (2.5 w/w by the raw values)
[4] = 2nd column, no head printed (5 w/w by the raw values)
[5] = 3rd column, no head printed (10 w/w by the raw values)
[6] = 4th column, no head printed (15 w/w by the raw values)

| SMILES | Raw values for luciferase expression ([2]; lipid/DNA 5 w/w) | Raw values for luciferase expression ([2]; lipid/DNA 2.5 w/w) [relative lights units] | luciferase expression (second part of table, values relative to LIPO2000) (cos-7 cells; lipid/DNA 2.5 w/w) | luciferase expression (second part of table, values relative to LIPO2000) (cos-7 cells; lipid/DNA 5 w/w) | luciferase expression (second part of table, values relative to LIPO2000) (cos-7 cells; lipid/DNA 10 w/w) | luciferase expression (second part of table, values relative to LIPO2000) (cos-7 cells; lipid/DNA 15 w/w) | Reporter-protein knockdown relative to Lipofectamine 2000 (negative values indicate improved knockdown) ([1]; lipid/RNA 2.5 w/w) | Reporter-protein knockdown relative to Lipofectamine 2000 (negative values indicate improved knockdown) ([1]; lipid/RNA 5 w/w) | Reporter-protein knockdown relative to Lipofectamine 2000 (negative values indicate improved knockdown) ([1]; lipid/RNA 10 w/w) | Reporter-protein knockdown relative to Lipofectamine 2000 (negative values indicate improved knockdown) ([1]; lipid/RNA 15 w/w) | Luciferase expression as a percentage of that achieved using Lipofectamine 2000 (cos-7 cells; lipid/DNA 2.5 w/w) [%] | Luciferase expression as a percentage of that achieved using Lipofectamine 2000 (cos-7 cells; lipid/DNA 5 w/w) [%] | Luciferase expression as a percentage of that achieved using Lipofectamine 2000 (cos-7 cells; lipid/DNA 20 w/w) [%] | Luciferase expression as a percentage of that achieved using Lipofectamine 2000 (cos-7 cells; lipid/DNA 25 w/w) [%] | other results |
| --- | --- | --- | --- | --- | --- | --- | --- | --- | --- | --- | --- | --- | --- | --- | --- |
| CCCCCCCCCCCCNC(=O)CCN(CCCN(CCC(=O)NCCCCCCCCCCCC)CCC(=O)NCCCCCCCCCCCC)CCC(=O)NCCCCCCCCCCCC [ND100] | – | – | 45.7 | 48.0 | 20.8 | 2.7 | 10.88 | −7.546 | −21.4945 | −8.3303 | – | – | – | – | luciferase expression, second set of columns (replicate set of data) (cos-7 cells; [3]): 62.6; luciferase expression, second set of columns (replicate set of data) (cos-7 cells; [4]): 37.4; luciferase expression, second set of columns (replicate set of data) (cos-7 cells; [5]): 2.5; luciferase expression, second set of columns (replicate set of data) (cos-7 cells; [6]): 0.6 |
| CCCCCCCCCCCCCCCOC(=O)CCN(CCC(=O)OCCCCCCCCCCCCCCC)CCC1CCCN1C (stereo not shown) [LG77] | – | – | – | – | – | – | 71.01 | −0.05414 | −7.721 | −21.3897 | 0.0 | 0.0 | 0.0 | 0.0 | % of the luciferase activity obtained from the use of Lipofectamine 2000 (cos-7 cells; 10 w/w lipid to DNA): 43.5%; % of the luciferase activity obtained from the use of Lipofectamine 2000 (cos-7 cells; 15 w/w lipid to DNA): 34.0% |
| CCCCCCCCCCCCCCCOC(=O)CCN(CCCN(C)C)CCC(=O)OCCCCCCCCCCCCCCC [LG80] | – | – | – | – | – | – | 2.007 | −9.09 | −15.9409 | −21.0263 | 2.2 | 11.9 | 21.9 | 17.4 | Luciferase expression as a percentage of that achieved using Lipofectamine 2000 (cos-7 cells; lipid/DNA 10 w/w): 19.8%; Luciferase expression as a percentage of that achieved using Lipofectamine 2000 (cos-7 cells; lipid/DNA 15 w/w): 31.3% |
| CCCCCCCCCCCCCCCOC(=O)CCN(CCOCCO)CCC(=O)OCCCCCCCCCCCCCCC [LG31] | – | – | 19.6 | 27.6 | 34.0 | 8.5 | 41 | 21.06 | −2.714 | −5.764 | 19.6 | 27.6 | 14.3 | 94.0 | Luciferase expression as a percentage of that achieved using Lipofectamine 2000 (cos-7 cells; lipid/DNA 10 w/w): 34.0%; Luciferase expression as a percentage of that achieved using Lipofectamine 2000 (cos-7 cells; lipid/DNA 15 w/w): 8.5%; luciferase expression (second part of table, values relative to LIPO2000) (cos-7 cells; lipid/DNA 20 w/w): 14.3; luciferase expression (second part of table, values relative to LIPO2000) (cos-7 cells; lipid/DNA 25 w/w): 94.0 |
| CCCCCCCCCCCCCCCOC(=O)CCN(CCCCCO)CCC(=O)OCCCCCCCCCCCCCCC [LG32] | – | – | – | – | – | – | 58.1 | 41.51 | 44.71 | −13.6483 | 0.2 | 10.2 | 0.4 | 0.7 | Luciferase expression as a percentage of that achieved using Lipofectamine 2000 (cos-7 cells; lipid/DNA 10 w/w): 1.0%; Luciferase expression as a percentage of that achieved using Lipofectamine 2000 (cos-7 cells; lipid/DNA 15 w/w): 0.7% |
| CCCCCCCCCCCCCCNC(=O)CCN(CC)CCN(CC)CCC(=O)NCCCCCCCCCCCCCC [NF61] | 3689556 relative lights units and 3053999 relative lights units | – | 63.9 | 67.7 | 7.0 | 2.9 | – | – | – | – | – | – | – | – | luciferase expression, second set of columns (replicate set of data) (cos-7 cells; [3]): 5.2; luciferase expression, second set of columns (replicate set of data) (cos-7 cells; [4]): 38.9; luciferase expression, second set of columns (replicate set of data) (cos-7 cells; [5]): 8.6; luciferase expression, second set of columns (replicate set of data) (cos-7 cells; [6]): 1.1 |
| CCCCCCCCCCCCCCNC(=O)CCN(C)CCN(C)CCC(=O)NCCCCCCCCCCCCCC [NF60] | – | – | 6.8 | 21.9 | 28.9 | 49.1 | – | – | – | – | – | – | – | – | Raw values for luciferase expression ([2]; lipid/DNA 10 w/w): 2401570 relative lights units; Raw values for luciferase expression ([2]; lipid/DNA 15 w/w): 3739668 relative lights units |
| CCCCCCCCCCCCCCNC(=O)CCN(C)CCN(CCC(=O)NCCCCCCCCCCCCCC)CCC(=O)NCCCCCCCCCCCCCC [NF95] | 2082965 relative lights units and 3775212 relative lights units | – | 131.6 | 141.8 | 100.5 | 33.9 | – | – | – | – | – | – | – | – | luciferase expression, second set of columns (replicate set of data) (cos-7 cells; [3]): 6.0; luciferase expression, second set of columns (replicate set of data) (cos-7 cells; [4]): 9.4; luciferase expression, second set of columns (replicate set of data) (cos-7 cells; [5]): 4.7; luciferase expression, second set of columns (replicate set of data) (cos-7 cells; [6]): 12.1; Raw values for luciferase expression ([2]; lipid/DNA 10 w/w): 1906488 relative lights units; Raw values for luciferase expression ([2]; lipid/DNA 15 w/w): 918612 relative lights units |

Now from value to molecule, other results behind:

| Raw values for luciferase expression ([2]; lipid/DNA 5 w/w) | Raw values for luciferase expression ([2]; lipid/DNA 2.5 w/w) [relative lights units] | SMILES | luciferase expression (second part of table, values relative to LIPO2000) (cos-7 cells; lipid/DNA 2.5 w/w) | luciferase expression (second part of table, values relative to LIPO2000) (cos-7 cells; lipid/DNA 5 w/w) | luciferase expression (second part of table, values relative to LIPO2000) (cos-7 cells; lipid/DNA 10 w/w) | luciferase expression (second part of table, values relative to LIPO2000) (cos-7 cells; lipid/DNA 15 w/w) | Reporter-protein knockdown relative to Lipofectamine 2000 (negative values indicate improved knockdown) ([1]; lipid/RNA 2.5 w/w) | Reporter-protein knockdown relative to Lipofectamine 2000 (negative values indicate improved knockdown) ([1]; lipid/RNA 5 w/w) | Reporter-protein knockdown relative to Lipofectamine 2000 (negative values indicate improved knockdown) ([1]; lipid/RNA 10 w/w) | Reporter-protein knockdown relative to Lipofectamine 2000 (negative values indicate improved knockdown) ([1]; lipid/RNA 15 w/w) | Luciferase expression as a percentage of that achieved using Lipofectamine 2000 (cos-7 cells; lipid/DNA 2.5 w/w) [%] | Luciferase expression as a percentage of that achieved using Lipofectamine 2000 (cos-7 cells; lipid/DNA 5 w/w) [%] | Luciferase expression as a percentage of that achieved using Lipofectamine 2000 (cos-7 cells; lipid/DNA 20 w/w) [%] | Luciferase expression as a percentage of that achieved using Lipofectamine 2000 (cos-7 cells; lipid/DNA 25 w/w) [%] | other results |
| --- | --- | --- | --- | --- | --- | --- | --- | --- | --- | --- | --- | --- | --- | --- | --- |
| 1083569 relative lights units | 721270 | CCCCCCCCCCCCNC(=O)CCN(CCC(=O)NCCCCCCCCCCCC)CC(C)O (stereo not shown) [ND22] | 29.2 | 61.7 | 48.0 | 4.4 | – | – | – | – | – | – | – | – | luciferase expression (second part of table, values relative to LIPO2000) (cos-7 cells; lipid/DNA 20 w/w): 0.4; luciferase expression (second part of table, values relative to LIPO2000) (cos-7 cells; lipid/DNA 25 w/w): 0.2 |
| 1231973 relative lights units | 5256861 | CCCCCCCCCCCCNC(=O)CCN(CCC(=O)NCCCCCCCCCCCC)CC(O)CO (stereo not shown) [ND24] | 157.6 | 30.5 | 2.4 | 0.2 | – | – | – | – | – | – | – | – | luciferase expression (second part of table, values relative to LIPO2000) (cos-7 cells; lipid/DNA 20 w/w): 0.0; luciferase expression (second part of table, values relative to LIPO2000) (cos-7 cells; lipid/DNA 25 w/w): 0.0 |
| 3436007 relative lights units | 3904993 | CCCCCCCCCCCCCCNC(=O)CCN(CCCN(CCO)CCO)CCC(=O)NCCCCCCCCCCCCCC [NF87] | 46.1 | 44.8 | 0.3 | 0.0 | – | – | – | – | – | – | – | – | – |
| 8015 relative lights units | 1061441 | CCCCCCCCCCCCCCNC(=O)CCN(CCCN(CCC(=O)NCCCCCCCCCCCCCC)CCC(=O)NCCCCCCCCCCCCCC)CCC(=O)NCCCCCCCCCCCCCC [NF100] | 75.9 | 0.5 | 0.0 | 0.0 | – | – | – | – | – | – | – | – | – |

Reference: US9006487B2, “Amine-containing lipids and uses thereof” (Massachusetts Institute of Technology, priority 2005, dated 2015)
